# Reference: patent publication US20240287070A1, “FUSED HETEROCYCLIC DERIVATIVES” (Janssen Sciences Ireland Unlimited Company, priority 2021, published 2024)
# Columns and labels:
# [1] = tested on: HBV (HepG2.117 cell line, inducibly HBV producing); experiment: Anti-HBV activity, intracellular HBV DNA by real-time PCR in HepG2.117 cell line; assay type: cell-based, hepatitis B virus; conditions: HepG2.117 cells, 3 days of treatment
# Method: The anti HBV activity was measured using the HepG2.117 cell line, a stable, inducibly HBV producing cell line, which replicates HBV in the absence of doxycycline (Tet-off system). The HepG2 cell line is available from ATCCR under number HB-8065. Transfection of the HepG2 cell line can be as described in Sun and Nassal 2006 Journal of Hepatology 45 (2006) 636-645 “Stable HepG2- and Huh7-based human hepatoma cell lines for efficient regulated expression of infectious hepatitis B virus”.
# For the antiviral assay, HBV replication was induced, followed by a treatment with serially diluted compound in 96-well plates. After 3 days of treatment, the antiviral activity was determined by quantification of intracellular HBV DNA using real-time PCR and an HBV specific primer set and probe.
# [2] = Human liver microsome stability; assay type: in vitro ADME; conditions: 1 μM compound, NADPH 1 mM, 37° C., 0-60 min; for half-life at 1 μM: human, pooled human liver microsomes, pH 7.4, pooled human liver microsomes 0.5 mg/mL, read-out: HLM Metabolism t1/2; for HLM Metabolism t1/2: pooled human liver microsomes 0.5 mg/mL
# Method: Human Liver Microsome Stability t½ (Min) of Compounds of Formula (I) […] All incubations are performed singularly for each compound. NADPH was added to initiate the reaction with the final concentration of 1 mM and the final incubation volume of 400 μL. At 6 time points (0, 5, 10, 20, 40 and 60 min) reactions were stopped by the removal of 50 μL of the incubation mixture into plates containing acetonitrile at a of 1:3 (v:v). The plates were centrifuged at 3000 rpm for 10 min at 4° C. to precipitate the protein. Following protein precipitation, the sample supernatants were combined in cassettes of up to 8 compounds. The internal standard was added (1:1 supernatant to internal standard solution) and samples were analyzed using standard LC-MS conditions. From a plot of ln peak area ratio (compound peak area/internal standard peak area) against time, the gradient of the line is determined. Subsequently, half-life is calculated using the equations below: Elimination rate constant (k)=(−gradient) […]
# [3] = Cytotoxicity, ATPlite Luminescence Assay; assay type: cell-based, human; conditions: human, HepG2 or HepG2.117 cells, 3-days incubation unless marked with *
# Method: Cytotoxicity of the compounds was tested using HepG2 or HepG2.117 cells, incubated for 3 or 4 days in the presence of compounds. The viability of the cells was assessed using the PERKIN ELMER ATPlite Luminescence Assay System.”
# [4] = Hepatitis B virus, HepG2.117, 72 h
Structure (SMILES),"EC50 [1, 4] [µM]",half-life at 1 μM [2] [h],CC50 at 3 days [3] [µM],EC50 [1] [µM],HLM Metabolism t1/2 [2] [h]
"CC(c1ccc(=O)n(C)n1)N1C[C@@H](C)n2nc3c(c2C1=O)CN(C(=O)c1ccc(Cl)c(Cl)c1)[C@H](C)C3 (single isomer, unassigned) [Compound 55A, (3R,7R)-2-(3,4-dichlorobenzoyl)-3,7-dimethyl-9-((R*)-1-(1-methyl-6-oxo-1,6-dihydropyridazin-3-yl)ethyl)-1,2,3,4,8,9-hexahydropyrido[4′,3′:3,4]pyrazolo[1,5-a]pyrazin-10(7H)-one]",0.051,> 3,> 50,–,–
"C[C@@H]1Cc2nn3c(c2CN1C(=O)c1ccc(Cl)c(Cl)c1)C(=O)N([C@@H](C)c1ccc([S@@](C)(=N)=O)cc1)C[C@H]3C (relative stereo) [Compound 18D, (3R,7R)-2-(3,4-dichlorobenzoyl)-3,7-dimethyl-9-((S*)-1-(4-((S*)—S-methylsulfonimidoyl)phenyl)ethyl)-1,2,3,4,8,9-hexahydropyrido[4′,3′:3,4]pyrazolo[1,5-a]pyrazin-10(7H)-one]",0.024,> 3,> 50,–,–
"CC(c1ccc(C(C)(C)O)nc1)N1C[C@@H](C)n2nc3c(c2C1=O)CN(C(=O)c1cc(C(F)(F)F)c(Cl)cn1)[C@H](C)C3 (single isomer, unassigned) [Compound 58A, (3R,7R)-2-(5-chloro-4-(trifluoromethyl)picolinoyl)-9-((R*)-1-(6-(2-hydroxypropan-2-yl)pyridin-3-yl)ethyl)-3,7-dimethyl-1,2,3,4,8,9-hexahydropyrido[4′,3′:3,4]pyrazolo[1,5-a]pyrazin-10(7H)-one]",–,> 3,> 50,> 2.5,–
"CC(c1cnc(C(F)(F)F)nc1)N1C[C@@H](C)n2nc3c(c2C1=O)CN(C(=O)c1ccc(Cl)c(Cl)c1)[C@H](C)C3 (single isomer, unassigned) [Compound 34A, (3R,7R)-2-(3,4-dichlorobenzoyl)-3,7-dimethyl-9-((R*)-1-(2-(trifluoromethyl)pyrimidin-5-yl)ethyl)-1,2,3,4,8,9-hexahydropyrido[4′,3′:3,4]pyrazolo[1,5-a]pyrazin-10(7H)-one]",–,> 3,> 50,0.63,–
"CC(c1ccc(C(C)(C)O)nc1)N1C[C@@H](C)n2nc3c(c2C1=O)CN(C(=O)c1cc(F)c(Cl)c(F)c1)[C@H](C)C3 (single isomer, unassigned) [Compound 60A, (3R,7R)-2-(4-chloro-3,5-difluorobenzoyl)-9-((R*)-1-(6-(2-hydroxypropan-2-yl)pyridin-3-yl)ethyl)-3,7-dimethyl-1,2,3,4,8,9-hexahydropyrido[4′,3′:3,4]pyrazolo[1,5-a]pyrazin-10(7H)-one]",–,> 3,> 50,0.3,–
"CC(c1ccccn1)N1CCn2nc3c(c2C1=O)CN(C(=O)c1ccc(Cl)c(Cl)c1)[C@H](C)C3 (mixture of isomers) [Ref 3, reference compound]",–,–,> 50,–,–
"CC(c1cnn(C(C)C)c(=O)c1)N1C[C@@H](C)n2nc3c(c2C1=O)CN(C(=O)c1ccc(Cl)c(C(F)(F)F)c1)[C@H](C)C3 (single isomer, unassigned) [Compound 53A, (3R,7R)-2-(4-chloro-3-(trifluoromethyl)benzoyl)-9-((R*)-1-(1-isopropyl-6-oxo-1,6-dihydropyridazin-4-yl)ethyl)-3,7-dimethyl-1,2,3,4,8,9-hexahydropyrido[4′,3′:3,4]pyrazolo[1,5-a]pyrazin-10(7H)-one]",–,1.85,> 50,0.24,–
"CC(c1ccc(-c2ccn(C)n2)cc1)N1C[C@@H](C)n2nc3c(c2C1=O)CN(C(=O)c1ccc(Cl)c(C#N)c1)[C@H](C)C3 (single isomer, unassigned) [Compound 21A, 2-Chloro-5-((3R,7R)-3,7-dimethyl-9-((R*)-1-(4-(1-methyl-1H-pyrazol-3-yl)phenyl)ethyl)-10-oxo-1,2,3,4,7,8,9,10-octahydropyrido[4′,3′:3,4]pyrazolo[1,5-a]pyrazine-2-carbonyl)benzonitrile]",–,–,> 50,0.035,0.98
"CC(c1cnc(N2CCOC[C@@H]2C)nc1)N1C[C@@H](C)n2nc3c(c2C1=O)CN(C(=O)c1ccc(Cl)c(C(F)(F)F)c1)[C@H](C)C3 (single isomer, unassigned) [Compound 38A, (3R,7R)-2-(4-chloro-3-(trifluoromethyl)benzoyl)-3,7-dimethyl-9-((R*)-1-(2-((S)-3-methylmorpholino)pyrimidin-5-yl)ethyl)-1,2,3,4,8,9-hexahydropyrido[4′,3′:3,4]pyrazolo[1,5-a]pyrazin-10(7H)-one]",–,1.01,47,0.06,–
"CC(c1cc(F)c(=O)n(C)c1)N1C[C@@H](C)n2nc3c(c2C1=O)CN(C(=O)c1ccc(Cl)c(Cl)c1)[C@H](C)C3 (single isomer, unassigned) [Compound 45B, (3R,7R)-2-(3,4-dichlorobenzoyl)-9-((S*)-1-(5-fluoro-1-methyl-6-oxo-1,6-dihydropyridin-3-yl)ethyl)-3,7-dimethyl-1,2,3,4,8,9-hexahydropyrido[4′,3′:3,4]pyrazolo [1,5-a]pyrazin-10(7H)-one]",0.027,> 3,> 50,–,–
"C[C@@H]1Cc2nn3c(c2CN1C(=O)c1ccc(Cl)c(Cl)c1)C(=O)N([C@H](C)c1ccc(C#N)cc1)CC3 [Ref 4, reference compound]",–,–,> 50,–,–
"CN=[S@](C)(=O)c1ccc([C@H](C)N2C[C@@H](C)n3nc4c(c3C2=O)CN(C(=O)c2ccc(Cl)c(Cl)c2)[C@H](C)C4)cn1 (relative stereo) [Compound 29C, (3R,7R)-2-(3,4-dichlorobenzoyl)-9-((S*)-1-(6-((R*)—N,S-dimethylsulfonimidoyl)pyridin-3-yl)ethyl)-3,7-dimethyl-1,2,3,4,8,9-hexahydropyrido[4′,3′:3,4]pyrazolo[1,5-a]pyrazin-10(7H)-one]",0.051,1.43,> 50,–,–
"CC(c1ccnc(Cl)c1)N1C[C@@H](C)n2nc3c(c2C1=O)CN(C(=O)c1ccc(Cl)c(Cl)c1)[C@H](C)C3 (single isomer, unassigned) [Compound 31A, (3R,7R)-9-((R*)-1-(2-chloropyridin-4-yl)ethyl)-2-(3,4-dichlorobenzoyl)-3,7-dimethyl-1,2,3,4,8,9-hexahydropyrido[4′,3′:3,4]pyrazolo[1,5-a]pyrazin-10(7H)-one]",–,1.9,31.5,0.051,–
"C[C@@H]1Cc2nn3c(c2CN1C(=O)c1ccc(Cl)c(C(F)(F)F)c1)C(=O)N([C@H](C)c1ccc([S@@](C)(=N)=O)cc1)C[C@H]3C (relative stereo) [Compound 19B, (3R,7R)-2-(4-chloro-3-(trifluoromethyl)benzoyl)-3,7-dimethyl-9-((R*)-1-(4-((S*)—S-methylsulfonimidoyl)phenyl)ethyl)-1,2,3,4,8,9-hexahydropyrido[4′,3′:3,4]pyrazolo[1,5-a]pyrazin-10(7H)-one]",0.015,> 3,> 50,–,–
"CC(c1cnn(C)c(=O)c1)N1C[C@@H](C)n2nc3c(c2C1=O)CN(C(=O)c1ccc(Cl)c(C(F)(F)F)c1)[C@H](C)C3 (single isomer, unassigned) [Compound 52A, (3R,7R)-2-(4-chloro-3-(trifluoromethyl)benzoyl)-3,7-dimethyl-9-((R*)-1-(1-methyl-6-oxo-1,6-dihydropyridazin-4-yl)ethyl)-1,2,3,4,8,9-hexahydropyrido [4′,3′:3,4]pyrazolo[1,5-a]pyrazin-10(7H)-one]",–,–,> 50,0.12,1.48
"CN=[S@@](C)(=O)c1ccc([C@H](C)N2C[C@@H](C)n3nc4c(c3C2=O)CN(C(=O)c2ccc(Cl)c(Cl)c2)[C@H](C)C4)cn1 (relative stereo) [Compound 29D, (3R,7R)-2-(3,4-dichlorobenzoyl)-9-((S*)-1-(6-((S*)—N,S-dimethylsulfonimidoyl)pyridin-3-yl)ethyl)-3,7-dimethyl-1,2,3,4,8,9-hexahydropyrido[4′,3′:3,4]pyrazolo[1,5-a]pyrazin-10(7H)-one]",0.059,1.25,> 50,–,–
"C[C@@H]1Cc2nn3c(c2CN1C(=O)c1ccc(Cl)c(Cl)c1)C(=O)N([C@@H](C)c1ccc(C#N)cc1)CC3 [Ref 5, reference compound]",–,–,> 50,–,–
